We go through one compound from patent publication US20080255128A1, “PHTHALAZINONE DERIVATIVES” (priority 2007, published 2008).

This data set is described as follows: Stereochemical stability of separated isomers on standing in solution. Type of data set: physicochemical. The settings on record: after separation by chiral HPLC. The protocol:
has a chiral centre where indicated. This racemic mixture was separated using chiral preparative HPLC.
This separation was carried out on a Rainin prep machine (200 ml heads) using a Merck 100 mm 20 μm Chiralpak AD column. The Eluent was a mixture of i-hexane, ethanol and methanol (70:15:15), which was flowed at a rate of 190 ml/min. The analaysis was carried out with a wavelength of 215 nm. Complete separation of the two isomers was achieved using a sample concentration of 12.5 mg/ml, an injection volumn of 40 ml and a run time of 3 hours.

Entries after “also recorded” stand apart in the source; their conditions may differ.

Turning to `CC1C(=O)N(c2cc(Cc3n[nH]c(=O)c4ccccc34)ccc2F)C(=O)N1CCN1CCCC1` (racemic) [Compound 9, 3-(2-fluoro-5-((4-oxo-3,4-dihydrophthalazin-1-yl)methyl)phenyl)-5-methyl-1-(2-(pyrrolidin-1-yl)ethyl)imidazolidine-2,4-dione], the “stereochemical stability in solution” value is reported as “epimerise on standing in solution; also recorded: racemises”.
